Test results published in ChEMBL document CHEMBL3045793, “The synthesis, anti-inflammatory and antimicrobial activity evaluation of novel thioanalogs of 3,4-dihydrothiopyrimidin-2(1H)-one derivatives of N-aryl urea” (2012).
Converted amounts (≈) assume the structure as drawn. The source made the active and inactive calls. The calls are words filed in the database; no cut-off is given here.

What was measured:
[1] = test system: Salmonella typhimurium; assay: Antibacterial activity against Salmonella enterica subsp. enterica serovar Typhimurium by agar well diffusion method; format: functional
[2] = test system: Staphylococcus aureus; assay: Antibacterial activity against Staphylococcus aureus by agar well diffusion method; format: functional
[3] = test system: THP-1; assay: Anti-inflammatory activity in Homo sapiens (human) THP1 cells assessed as inhibition of LPS-induced TNF-alpha production preincubated at 10 uM for 30 min before LPS treatment measured after 24 hr by ELISA; format: functional
[4] = test system: Escherichia coli; assay: Antibacterial activity against Escherichia coli by agar well diffusion method; format: functional
[5] = test system: Aspergillus niger; assay: Antifungal activity against Aspergillus niger by agar well diffusion method; format: functional
[6] = test system: Bacillus subtilis; assay: Antibacterial activity against Bacillus subtilis by agar well diffusion method; format: functional
[7] = test system: Fusarium solani; assay: Antifungal activity against Fusarium solani by agar well diffusion method; format: functional
[8] = test system: Aspergillus flavus; assay: Antifungal activity against Aspergillus flavus by agar well diffusion method; format: functional
[9] = test system: Candida albicans; assay: Antifungal activity against Candida albicans by agar well diffusion method; format: functional
[10] = test system: THP-1; assay: Anti-inflammatory activity in Homo sapiens (human) THP1 cells assessed as inhibition of LPS-induced IL-6 production preincubated at 10 uM for 30 min before LPS treatment measured after 24 hr by ELISA; format: functional
[11] = test system: Fusarium solani; assay: Antifungal activity against Fusarium solani up to 200 ug/ml by agar well diffusion method; format: functional, organism-based
[12] = test system: Aspergillus flavus; assay: Antifungal activity against Aspergillus flavus up to 200 ug/ml by agar well diffusion method; format: functional, organism-based
[13] = test system: Candida albicans; assay: Antifungal activity against Candida albicans up to 200 ug/ml by agar well diffusion method; format: functional, organism-based
[14] = test system: Escherichia coli; assay: Antibacterial activity against Escherichia coli up to 200 ug/ml by agar well diffusion method; format: functional, organism-based
[15] = test system: Bacillus subtilis; assay: Antibacterial activity against Bacillus subtilis up to 200 ug/ml by agar well diffusion method; format: functional, organism-based

SMILES	MIC [1]	MIC [2]	inhibition at 10 µM [3]	MIC [4]	MIC [5]	MIC [6]	MIC [7]	MIC [8]	MIC [9]	inhibition at 10 µM [10]	Activity [11]	Activity [12]	Activity [13]	Activity [14]	Activity [15]
CCOC(=O)C1=C(C)NC(=S)NC1c1ccc(NC(=S)Nc2ccc(C(C)C)cc2)cc1 (stereo not drawn)	90 µg/mL (≈ 192 µM)	70 µg/mL (≈ 149 µM)	61%	90 µg/mL (≈ 192 µM)	80 µg/mL (≈ 171 µM)	55 µg/mL (≈ 117 µM)	70 µg/mL (≈ 149 µM)	95 µg/mL (≈ 203 µM)	80 µg/mL (≈ 171 µM)	90%	–	–	–	–	–
CCOC(=O)C1=C(C)NC(=S)NC1c1ccc(NC(=S)Nc2cc(F)cc(F)c2)cc1 (stereo not drawn)	90 µg/mL (≈ 195 µM)	65 µg/mL (≈ 141 µM)	55%	–	85 µg/mL (≈ 184 µM)	90 µg/mL (≈ 195 µM)	–	–	–	82%	inactive	inactive	inactive	inactive	–
Clc1ccc(COC(Cn2ccnc2)c2ccc(Cl)cc2Cl)c(Cl)c1 (stereo not drawn) [MICONAZOLE]	–	–	–	–	20 µg/mL (≈ 48.1 µM)	–	15 µg/mL (≈ 36 µM)	20 µg/mL (≈ 48.1 µM)	25 µg/mL (≈ 60.1 µM)	–	–	–	–	–	–
CCOC(=O)C1=C(C)NC(=S)NC1c1ccc([N+](=O)[O-])cc1 (stereo not drawn)	30 µg/mL (≈ 93.4 µM)	40 µg/mL (≈ 124 µM)	0%	45 µg/mL (≈ 140 µM)	65 µg/mL (≈ 202 µM)	55 µg/mL (≈ 171 µM)	75 µg/mL (≈ 233 µM)	65 µg/mL (≈ 202 µM)	30 µg/mL (≈ 93.4 µM)	3%	–	–	–	–	–
CCOC(=O)C1=C(C)NC(=S)NC1c1ccc(NC(=S)Nc2cc(C(F)(F)F)ccc2Cl)cc1 (stereo not drawn)	90 µg/mL (≈ 170 µM)	90 µg/mL (≈ 170 µM)	78%	80 µg/mL (≈ 151 µM)	90 µg/mL (≈ 170 µM)	85 µg/mL (≈ 161 µM)	–	–	85 µg/mL (≈ 161 µM)	96%	inactive	inactive	–	–	–
CCOC(=O)C1=C(C)NC(=S)NC1c1ccc(NC(=S)Nc2c(C)cccc2F)cc1 (stereo not drawn)	90 µg/mL (≈ 196 µM)	90 µg/mL (≈ 196 µM)	0%	70 µg/mL (≈ 153 µM)	55 µg/mL (≈ 120 µM)	–	65 µg/mL (≈ 142 µM)	60 µg/mL (≈ 131 µM)	50 µg/mL (≈ 109 µM)	16%	–	–	–	–	inactive
O=C(O)c1cn(C2CC2)c2cc(N3CCNCC3)c(F)cc2c1=O [CIPROFLOXACIN]	25 µg/mL (≈ 75.4 µM)	–	–	15 µg/mL (≈ 45.3 µM)	–	25 µg/mL (≈ 75.4 µM)	–	–	–	–	–	–	–	–	–
CCOC(=O)C1=C(C)NC(=S)NC1c1ccc(NC(=S)Nc2ccc(C(F)(F)F)cc2Cl)cc1 (stereo not drawn)	55 µg/mL (≈ 104 µM)	90 µg/mL (≈ 170 µM)	55%	65 µg/mL (≈ 123 µM)	55 µg/mL (≈ 104 µM)	55 µg/mL (≈ 104 µM)	90 µg/mL (≈ 170 µM)	60 µg/mL (≈ 113 µM)	50 µg/mL (≈ 94.5 µM)	68%	–	–	–	–	–
CCOC(=O)C1=C(C)NC(=S)NC1c1ccc(NC(=S)Nc2ccc(C(F)(F)F)cc2)cc1 (stereo not drawn)	30 µg/mL (≈ 60.7 µM)	10 µg/mL (≈ 20.2 µM)	8%	10 µg/mL (≈ 20.2 µM)	10 µg/mL (≈ 20.2 µM)	15 µg/mL (≈ 30.3 µM)	10 µg/mL (≈ 20.2 µM)	15 µg/mL (≈ 30.3 µM)	10 µg/mL (≈ 20.2 µM)	48%	–	–	–	–	–
CCOC(=O)C1=C(C)NC(=S)NC1c1ccc(NC(=S)Nc2c(F)cccc2C(F)(F)F)cc1 (stereo not drawn)	45 µg/mL (≈ 87.8 µM)	35 µg/mL (≈ 68.3 µM)	0%	40 µg/mL (≈ 78 µM)	30 µg/mL (≈ 58.5 µM)	55 µg/mL (≈ 107 µM)	45 µg/mL (≈ 87.8 µM)	80 µg/mL (≈ 156 µM)	55 µg/mL (≈ 107 µM)	30%	–	–	–	–	–
CCOC(=O)C1=C(C)NC(=S)NC1c1ccc(NC(=S)Nc2c(C)cccc2Cl)cc1 (stereo not drawn)	65 µg/mL (≈ 137 µM)	40 µg/mL (≈ 84.2 µM)	32%	65 µg/mL (≈ 137 µM)	90 µg/mL (≈ 189 µM)	80 µg/mL (≈ 168 µM)	60 µg/mL (≈ 126 µM)	60 µg/mL (≈ 126 µM)	65 µg/mL (≈ 137 µM)	55%	–	–	–	–	–
CCOC(=O)C1=C(C)NC(=S)NC1c1ccc(NC(=S)Nc2c(Cl)cccc2C(F)(F)F)cc1 (stereo not drawn)	90 µg/mL (≈ 170 µM)	65 µg/mL (≈ 123 µM)	46%	90 µg/mL (≈ 170 µM)	90 µg/mL (≈ 170 µM)	–	–	90 µg/mL (≈ 170 µM)	85 µg/mL (≈ 161 µM)	62%	inactive	–	–	–	inactive
CCOC(=O)C1=C(C)NC(=S)NC1c1ccc(NC(=O)Nc2ccccc2Oc2ccccc2)cc1 (stereo not drawn)	65 µg/mL (≈ 129 µM)	55 µg/mL (≈ 109 µM)	0%	85 µg/mL (≈ 169 µM)	60 µg/mL (≈ 119 µM)	60 µg/mL (≈ 119 µM)	45 µg/mL (≈ 89.5 µM)	35 µg/mL (≈ 69.6 µM)	40 µg/mL (≈ 79.6 µM)	42%	–	–	–	–	–
CCOC(=O)C1=C(C)NC(=S)NC1c1ccc(NC(=S)Nc2c(F)cccc2Cl)cc1 (stereo not drawn)	60 µg/mL (≈ 125 µM)	60 µg/mL (≈ 125 µM)	42%	85 µg/mL (≈ 177 µM)	85 µg/mL (≈ 177 µM)	80 µg/mL (≈ 167 µM)	–	–	65 µg/mL (≈ 136 µM)	56%	inactive	inactive	–	–	–
CCOC(=O)C1=C(C)NC(=S)NC1c1ccc(NC(=S)Nc2cccc(C(F)(F)F)c2)cc1 (stereo not drawn)	15 µg/mL (≈ 30.3 µM)	20 µg/mL (≈ 40.4 µM)	0%	20 µg/mL (≈ 40.4 µM)	25 µg/mL (≈ 50.5 µM)	35 µg/mL (≈ 70.8 µM)	15 µg/mL (≈ 30.3 µM)	15 µg/mL (≈ 30.3 µM)	15 µg/mL (≈ 30.3 µM)	16%	–	–	–	–	–
CCOC(=O)C1=C(C)NC(=S)NC1c1ccc(NC(=S)Nc2ccc(OC)cc2)cc1 (stereo not drawn)	25 µg/mL (≈ 54.8 µM)	10 µg/mL (≈ 21.9 µM)	0%	10 µg/mL (≈ 21.9 µM)	–	40 µg/mL (≈ 87.6 µM)	–	–	–	48%	–	–	–	–	–
CCOC(=O)C1=C(C)NC(=S)NC1c1ccc(N)cc1 (stereo not drawn)	45 µg/mL (≈ 154 µM)	60 µg/mL (≈ 206 µM)	0%	40 µg/mL (≈ 137 µM)	55 µg/mL (≈ 189 µM)	85 µg/mL (≈ 292 µM)	35 µg/mL (≈ 120 µM)	80 µg/mL (≈ 275 µM)	55 µg/mL (≈ 189 µM)	3%	–	–	–	–	–
CCOC(=O)C1=C(C)NC(=S)NC1c1ccc(NC(=S)Nc2ccccc2F)cc1 (stereo not drawn)	15 µg/mL (≈ 33.7 µM)	10 µg/mL (≈ 22.5 µM)	0%	10 µg/mL (≈ 22.5 µM)	10 µg/mL (≈ 22.5 µM)	25 µg/mL (≈ 56.2 µM)	15 µg/mL (≈ 33.7 µM)	15 µg/mL (≈ 33.7 µM)	10 µg/mL (≈ 22.5 µM)	22%	–	–	–	–	–
CCOC(=O)C1=C(C)NC(=S)NC1c1ccc(NC(=S)Nc2ccccc2C(F)(F)F)cc1 (stereo not drawn)	40 µg/mL (≈ 80.9 µM)	10 µg/mL (≈ 20.2 µM)	8%	15 µg/mL (≈ 30.3 µM)	50 µg/mL (≈ 101 µM)	10 µg/mL (≈ 20.2 µM)	20 µg/mL (≈ 40.4 µM)	20 µg/mL (≈ 40.4 µM)	20 µg/mL (≈ 40.4 µM)	18%	–	–	–	–	–
CCOC(=O)C1=C(C)NC(=S)NC1c1ccc(NC(=S)Nc2ccccc2Cl)cc1 (stereo not drawn)	20 µg/mL (≈ 43.4 µM)	20 µg/mL (≈ 43.4 µM)	0%	10 µg/mL (≈ 21.7 µM)	10 µg/mL (≈ 21.7 µM)	35 µg/mL (≈ 75.9 µM)	10 µg/mL (≈ 21.7 µM)	15 µg/mL (≈ 32.5 µM)	10 µg/mL (≈ 21.7 µM)	36%	–	–	–	–	–
CCOC(=O)C1=C(C)NC(=S)NC1c1ccc(NC(=S)Nc2ccccc2OC(F)(F)F)cc1 (stereo not drawn)	10 µg/mL (≈ 19.6 µM)	45 µg/mL (≈ 88.1 µM)	27%	35 µg/mL (≈ 68.6 µM)	30 µg/mL (≈ 58.8 µM)	20 µg/mL (≈ 39.2 µM)	10 µg/mL (≈ 19.6 µM)	15 µg/mL (≈ 29.4 µM)	10 µg/mL (≈ 19.6 µM)	54%	–	–	–	–	–
